Data from US20040101828A1, “Method for analysis of the phenoptypic characteristics of the human immunodeficiency virus (HIV)” (priority 2000, published 2004).

What was measured:
[1] = tested on: HIV virus (recombinant virus carrying reverse transcriptase from patient plasma); experiment: Recombinant virus assay (RVA): susceptibility to reverse transcriptase inhibitors, recombinant viruses from patient samples; assay type: cell-based, HIV-1; conditions: for median Resistance Index (RI) relative to NL43: 22 tested viruses from patients with ordinary treatment, 3 RVA replicates; for resistance levels (in words): sample R5
Method: (§1) The determination of the susceptibility of an HIV virus to a reverse transcriptase inhibitor is carried out in the following manner: 293 T cells are transfected with 7.5 μg of pSRT plasmid that is linearized by NruI, 0.1 μg of pVSV-G plasmid and 0.5 and 1 μg of the product that is obtained from the PCR reaction of the reverse transcription of HIV. The transfection precipitate is withdrawn from cells after 18 hours of incubation, and fresh growth medium is added. After 24 hours of cultivation, the supernatant is clarified by centrifuging (500 g, 15 minutes) and transferred to P4 indicating cells that were pre-incubated with serial dilutions of a reverse transcriptase inhibitor, in triplicate wells, for four hours. The range of inhibitor concentrations used varies according to the compounds. The signal that is produced by the activation of the marker gene was developed with CPRG for 48 hours as for the analysis of the susceptibility to a reverse transcriptase inhibitor, and index IC50 was calculated by using the median effect equation.
To determine if NL43 is a reference virus that is suitable for comparison with clinical isolates, a group of samples taken from patients with ordinary treatment was tested on 3 RVA replicates for their susceptibility to reverse transcriptase inhibitors.
The reproducibility of the method for determining the susceptibility of the recombinant virus (RVA) to reverse transcriptase inhibitors (RTI) was evaluated by a series of test on 5 samples, selected so as to represent a wide range of susceptibility profiles, between 4 and 8 tests per sample, by using RNA preparations and separate PCR reactions.

[2] = tested on: P4 cells; assay type: cell-based
Source text: The inhibitor concentration ranges that are used are selected based on the cellular toxicity of each compound and the IC50/IC90, ratio for the susceptibility of the resistant isolates (Table 1). […] A range of four serial dilutions, beginning at […], was used for the abacavir, making it possible to detect up to 60× more resistance.

[3] = tested on: Reference Virus NL4-3; experiment: Recombinant virus assay (RVA): susceptibility to reverse transcriptase inhibitors, reference virus; assay type: cell-based, HIV-1
Method: as §1
The pSRT plasmid that brings a deletion in the region that codes for pol extending from codon 24 of reverse transcriptase (base 2618) to codon 432 of reverse transcriptase (base 3872) includes all of the mutations combined with a resistance phenomenon that are known to date. […]

[4] = tested on: HIV viruses (NL-DIM, NL4.3, LAI-L91H); experiment: Validation of fusion inhibitor susceptibility method: resistant recombinant viruses versus reference viruses T5A1 and LAI; assay type: cell-based, HIV-1
Method: The recombinations that are obtained by using for the amplification of stage (b) the pair of primers FuA: 5′ […]3′ (SEQ ID No: 23) and FuB: 5′ […]3′ (SEQ ID No: 24) followed by a second amplification, carried out with the primer: FuC: 5′ […]3′ (SEQ ID No: 25) and a mixture of the following primers: FuD1: 5′ […]3′ (SEQ ID No: 26) and FuD2: 5′ […]3′ (SEQ ID No: 27) are very effective.
Actually, to obtain a satisfactory viral production, 10-50 ng of PCR product, used in the recombination stage, is generally adequate. In this method that is intended to analyze the phenotypic fusion characteristic, a viral production corresponding to 50-400 ng/ml of p24 is obtained after transfection. For the infection of target cells, between 0.5 and 5 ng of p24/well (96-well plates) is used. The increase of the optical density that is obtained after infection of target cells is linear if the infection is conducted under these conditions.
To validate the analytical method that relates to the susceptibility of HIV viruses to fusion inhibitors, two fusion inhibitors have been used: a peptide derived from the distal helix sequence in the gp41 of HIV (called DP178 or T20) and a derivative of betulinic acid (RPR103611). For each inhibitor, the reduction of sensitivity of one or more resistant viruses (previously identified by other authors) relative to two reference viruses: a primary plasmatic virus T5A1 and a virus adapted to in-vitro cultivation (LAI) was carried out. All the viruses were produced by recombination.
The increases of IC50 for a strongly resistant NL-DIM virus (described by Rimsky, L. T. et al. J. Virol. 1998, Vol. 72, pages 896-993) and for the NL4.3 virus (which is partially resistant) were measured regarding this inhibitor.
The increase of IC50 of the LA1-L91H resistant virus (Labrosse, B. et al. J. Virol. 2000 Vol 74, pages 2142-2150) regarding this inhibitor has been measured.

[5] = target: Envelope protein (gp41) of the strongly resistant NL-DIM virus (HIV-1); experiment: cell-based or functional assay
[6] = target: Envelope protein (gp41) of the NL4.3 reference virus (HIV-1); experiment: cell-based or functional assay
[7] = sample R1 (69N/T, 70R), 6 tests
[8] = sample R2 (41L, 62V, 67N, 69N, 75I, 77L, 115F, 116Y, 151M, 181C, 184V, 190A, 208Y, 215F, 219Q), 6 tests
[9] = sample R3 (184V, 215F), 6 tests
[10] = sample R4 (41L, 67N, 69D, 184V, 190A, H208Y, 210W, 215Y), 5 tests
[11] = sample R5 (215Y, 41L, 74V, 100I, 103N), 5 tests

Compound	Resistance Index, geometric mean (IC50 in the sample relative to NL43) [1, 7]	Resistance Index, geometric mean (IC50 in the sample relative to NL43) [1, 8]	Resistance Index, geometric mean (IC50 in the sample relative to NL43) [1, 9]	Resistance Index, geometric mean (IC50 in the sample relative to NL43) [1, 10]	Resistance Index, geometric mean (IC50 in the sample relative to NL43) [1, 11]	other results
Nc1ccn([C@@H]2CS[C@H](CO)O2)c(=O)n1 [3TC, lamivudine]	1.3	>f	>	>	1.8	median Resistance Index (RI) relative to NL43 [1]: ~1.22; resistance level (in words) ([1]; sample R3): high resistance level
Cc1cn([C@H]2C[C@H](N=[N+]=[N-])[C@@H](CO)O2)c(=O)[nH]c1=O [AZT, ziodvudine]						toxicity for the P4 cells [2]: > 300 μm
Nc1nc(NC2CC2)c2ncn([C@H]3C=C[C@@H](CO)C3)c2n1 [Abacavir]	1.1	>	4.3	6.1	1.7	IC50 index for the native stock of the virus [3]: about 3 μM; index IC50 for the P4 cells (cellular toxicity) [2]: about 250 μM
Cc1cn([C@H]2C=C[C@@H](CO)O2)c(=O)[nH]c1=O [D4T, stavudine]						median Resistance Index (RI) relative to NL43 [1]: around 0.92
O=c1[nH]cnc2c1ncn2[C@H]1CC[C@@H](CO)O1 [DDI]	1.4	26.9	3.1	3.0	2.6	
O=C1Nc2ccc(Cl)cc2[C@@](C#CC2CC2)(C(F)(F)F)O1 [Efavirenz]	1.0	74.9	1.0	149.8	>	resistance levels (in words) [1]: high resistance levels
Cc1ccnc2c1NC(=O)c1cccnc1N2C1CC1 [Nevirapine]						resistance index ([1]; one virus carrying a mutation on codon 98 (A for S) of reverse transcriptase): 11.0; resistance levels (in words) [1]: high resistance levels
C=C(C)[C@@H]1CC[C@]2(C(=O)NCCCCCCCC(=O)N[C@@H](CC(C)C)[C@@H](O)CC(=O)O)CC[C@]3(C)[C@H](CC[C@@H]4[C@@]5(C)CC[C@H](O)C(C)(C)[C@@H]5CC[C@]43C)[C@@H]12 [RPR103611]						increase of IC50 ([4]; LAT-L91H resistant virus relative to LAI and to T5A1): greater than 100 ×
T20 fusion inhibitor, a peptide derived from the distal helix sequence in the gp41 of HIV (from UniProt P03377 643-678)						increase of the value of IC50 relative to LAI [5]: > 100 fold; increase of the value of IC50 relative to T5A1 [5]: 80 fold; increase of IC50 relative to LAI [6]: 12.5 fold; increase of IC50 relative to T5A1 (printed 15A1) [6]: 10 fold
enfuvirtide						increase of IC50 ([4]; partially resistant NL4.3 virus relative to 15A1): 10 ×; increase of IC50 ([4]; partially resistant NL4.3 virus relative to LAI): 12.5 ×; increase of the value of IC50 ([4]; strongly resistant DIM virus relative to LAI): more than 100 ×; increase of the value of IC50 ([4]; strongly resistant DIM virus relative to T5A1): 80 ×
